Measurements: EP1472347B1, “IMPROVED PROTEIN EXPRESSION IN BACILLUS SUBTILIS” (Danisco US Inc., priority 2002, dated 2003)
No end group written: not given here.

System: aprE transcription
Experiment: β-galactosidase assay of the aprE-lacZ transcriptional fusion with synthetic Phr pentapeptides added to the medium
Type: cell-based, B. subtilis AL
Conditions: for aprE transcription (β-galactosidase activity, relative to wild-type): 10 µM pentapeptide in TY medium at 37°C, 4 hours after transition point between exponential and post-exponential growth, strain grown without Phr peptides (WT) set to 100%
Experimental: Figure 1 provides a bar graph depicting the different effects of Phr pentapeptides on aprE transcription. The transcription of the aprE-IacZ gene fusion in B. subtilis AL grown in TY medium at 37°C in the presence of 10 µM of one of the following pentapeptides (see Table II): PhrA (A), PhrC, (C), PhrE (E), PhrF (F), PhrG (G), PhrI (I) or PhrK (K), or in the absence of pentapeptides (-), was measured 4 hours after the transition point between the exponential and post-exponential growth phases. β-galactosidase activities were determined in Units per OD600 (% of WT; aprE-lacZ transcription level of the strain grown in the absence of Phr peptides [WT] is set to 100%).
Figure 2 provides a graph showing that PhrE stimulates aprE transcription. […] Zero time (T0) indicates the transition point between the exponential and post-exponential growth phases.
Overnight cultures were diluted to an optical density (OD600) of 0.1 in fresh TY medium, supplemented with Phr60 pentapeptide, as appropriate. Samples for OD600 readings and β-galactosidase activity determinations were taken at hourly intervals. The assay and the calculation of β-galactosidase activity (expressed as units per OD600) of the samples was performed as known In the art (See, Miller, Experiments In Molecular Genetics, Cold Spring Harbor Laboratory Press, NY, [1982]).
To analyze whether chromosomally-encoded Rap-Phr systems might be Involved in protease production, B. subtilis AL (bearing an aprE-lacZ transcriptional fusion), was grown in TY medium supplemented with synthetic PhrA, -C, -E, -F, -G, -H, -I, or -K pentapeptides (Table II).
In this Example, experiments conducted to further assess the effects of Rap-Phr systems on the transcription of aprE are described. The RapE-PhrE system was used as a model for two reasons. […] To determine the effect of PhrE on aprE transcription during growth, synthetic PhrE was added at two concentrations (1 and 10 µg/ml) to the medium of B. subtilis AL. […] It was also noted that in the latter case, aprE transcription seemed to be improved during all growth phases.

Substance	aprE transcription (β-galactosidase activity, relative to wild-type)	effect on aprE transcription compared with all Phr pentapeptides tested (Figure 1, 10 µM pentapeptide, post-exponential growth phase)	aprE transcription during growth (time course) (synthetic PhrE added at two concentrations (1 and 10 µg/ml) to the medium of B. subtilis AL, TY medium, 37°C, Figure 2)
ARNQT [PhrA]	100-120 % relative to wild-type	–	–
DRVGA [PhrI]	100-120 % relative to wild-type	–	–
EKMIG [PhrG]	100-120 % relative to wild-type	–	–
ERGMT [PhrC]	~60 % relative to wild-type	–	–
ERPVG [PhrK]	100-120 % relative to wild-type	–	–
QRGMI [PhrF]	~135 % relative to wild-type	–	–
SRNVT [PhrE]	~135 % relative to wild-type	strongest positive effect on aprE transcription	improved by the addition of PhrE only during the post-exponential growth phase in a PhrE concentration-dependent manner
